# Measurements reported in paper PMC7144120, “Psoralen Derivatives as Inhibitors of Mycobacterium tuberculosis Proteasome” (Molecules, 2020).
# Tests used:
# Mtb proteasome = target: T1, Mtb proteasome (Mycobacterium tuberculosis, UniProt P9WHT9); assay: biochemical; assay type: biochemical; settings: for IC50: 50 µM Suc-LLVY-AMC, 30 min preincubation, 37 °C, triplicate, read-out: IC50 against the Mtb proteasome; for Hill Coefficient: from IC50 curve, Mtb proteasome
# T1 construct: made in house
# T1 sequence (P9WHT9 whole entry, looked up): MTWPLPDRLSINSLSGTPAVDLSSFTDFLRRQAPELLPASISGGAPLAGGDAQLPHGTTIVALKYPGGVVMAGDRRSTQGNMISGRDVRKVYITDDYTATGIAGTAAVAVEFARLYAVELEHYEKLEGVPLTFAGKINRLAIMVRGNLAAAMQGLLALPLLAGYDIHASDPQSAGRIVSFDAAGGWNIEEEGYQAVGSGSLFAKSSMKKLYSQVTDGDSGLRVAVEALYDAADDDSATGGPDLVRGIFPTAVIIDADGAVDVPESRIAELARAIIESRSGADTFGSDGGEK
# ß5i of IP = settings: cited from earlier work; for RA at 10 µM against ß5i of IP: residual activity of β5i in the presence of 10 μM compound; for Ki: read-out: Ki against ß5i of IP; for IC50: read-out: IC50 against ß5i of IP
SMILES,RA at 100 µM against Mtb (Mtb proteasome) [%],RA at 10 µM against ß5i of IP (ß5i of IP) [%],also measured
Cc1c(CCC(=O)O)c(=O)oc2cc3c(cc12)C(c1ccccc1)CO3 (racemic) [Compound 91],95,94,
Cc1c(CCC(=O)ON2C(=O)CCC2=O)c(=O)oc2cc3c(cc12)C(c1ccccc1)CO3 (racemic) [Compound 92],95,36,
Cc1c(CCC(=O)O)c(=O)oc2cc3occ(-c4ccc(Br)cc4)c3cc12 [Compound 1],,,IC50 (Mtb proteasome): 39 ± 7 µM; Hill Coefficient (Mtb proteasome): 0.69; Ki (ß5i of IP): 137 µM
Cc1c(CCC(=O)O)c(=O)oc2cc3occ(-c4ccc(Cl)cc4)c3cc12 [Compound 2],,83,IC50 (Mtb proteasome): 15 ± 2 µM; Hill Coefficient (Mtb proteasome): 1.75
Cc1c(CCC(=O)O)c(=O)oc2cc3occ(-c4ccc(C(=O)O)cc4)c3cc12 [Compound 3],,53,IC50 (Mtb proteasome): 31 ± 5 µM; Hill Coefficient (Mtb proteasome): 1.22
Cc1c(CC(=O)O)c(=O)oc2cc3occ(-c4ccc(Br)cc4)c3cc12 [Compound 4],,,IC50 (Mtb proteasome): 4 ± 3 µM; Hill Coefficient (Mtb proteasome): 1.59; Ki (ß5i of IP): 12.7 µM
Cc1c(CCC(=O)O)c(=O)oc2c(C)c3occ(-c4ccc(Br)cc4)c3cc12 [Compound 5],,93,IC50 (Mtb proteasome): 17 ± 3 µM; Hill Coefficient (Mtb proteasome): 0.70
Cc1c(C(=O)O)c(=O)oc2cc3occ(-c4ccccc4)c3cc12 [Compound 6],,82,IC50 (Mtb proteasome): 2.2 ± 0.3 µM; Hill Coefficient (Mtb proteasome): 0.70
Cc1c(CCC(=O)N(C)CC#N)c(=O)oc2cc3occ(C(C)(C)C)c3cc12 [Compound 7],,100,IC50 (Mtb proteasome): 8 ± 5 µM; Hill Coefficient (Mtb proteasome): 0.42
Cc1c(CCC(=O)NCC#N)c(=O)oc2cc3occ(-c4ccccc4)c3cc12 [Compound 9],,66,IC50 (Mtb proteasome): 2 ± 2 µM; Hill Coefficient (Mtb proteasome): 2.27
Cc1cc(-c2coc3cc4oc(=O)c(CC(=O)NCC#N)c(C)c4cc23)c(C)o1 [Compound 10],,100,IC50 (Mtb proteasome): 3 ± 2 µM; Hill Coefficient (Mtb proteasome): 4.46
Cc1c(CCC(=O)ON2C(=O)CCC2=O)c(=O)oc2cc3occ(C4CCCCC4)c3cc12 [Compound 12],,,IC50 (Mtb proteasome): 5 ± 2 µM; Hill Coefficient (Mtb proteasome): 1.05; IC50 (ß5i of IP): 1.8 µM
Cc1cc(-c2coc3cc4oc(=O)c(CC(=O)ON5C(=O)CCC5=O)c(C)c4cc23)c(C)o1 [Compound 14],,,IC50 (Mtb proteasome): 9 ± 5 µM; Hill Coefficient (Mtb proteasome): 2.42; IC50 (ß5i of IP): 6.9 µM
Cc1c(CCC(=O)O)c(=O)oc2cc3occ(-c4ccccc4)c3cc12 [Compound 16],72,,inhibition of the Mtb proteasome (Mtb proteasome): did not inhibit; IC50 (ß5i of IP): 1.6 µM; Ki (ß5i of IP): 1.6 ± 0.7 µM
COc1ccc(-c2coc3cc4oc(=O)c(CCC(=O)O)c(C)c4cc23)cc1 [Compound 17],100,84,
COc1cccc(-c2coc3cc4oc(=O)c(CCC(=O)O)c(C)c4cc23)c1 [Compound 18],100,,Ki (ß5i of IP): 29.6 ± 3.9 µM
Cc1c(CCC(=O)O)c(=O)oc2cc3occ(C(C)(C)C)c3cc12 [Compound 19],95,83,
Cc1coc2cc3oc(=O)c(CCC(=O)O)c(C)c3cc12 [Compound 20],93,94,
Cc1cc(-c2coc3cc4oc(=O)c(CCC(=O)O)c(C)c4cc23)c(C)s1 [Compound 21],99,,Ki (ß5i of IP): 52.3 ± 18 µM
Cc1c(CCC(=O)O)c(=O)oc2cc3occ(-c4ccco4)c3cc12 [Compound 22],55,,Ki (ß5i of IP): 116 ± 27 µM
Cc1cc(-c2coc3cc4oc(=O)c(CCC(=O)O)c(C)c4cc23)c(C)o1 [Compound 23],76,100,
Cc1c(CCC(=O)O)c(=O)oc2cc3occ(C4CCCCC4)c3cc12 [Compound 24],71,102,
Cc1c(CC(=O)O)c(=O)oc2cc3occ(-c4ccccc4)c3cc12 [Compound 25],96,,Ki (ß5i of IP): 2.4 ± 0.4 µM
COc1ccc(-c2coc3cc4oc(=O)c(CC(=O)O)c(C)c4cc23)cc1 [Compound 26],50,,Ki (ß5i of IP): 8.2 ± 0.5 µM
COc1cccc(-c2coc3cc4oc(=O)c(CC(=O)O)c(C)c4cc23)c1 [Compound 27],98,,Ki (ß5i of IP): 7 ± 0.2 µM
Cc1c(CC(=O)O)c(=O)oc2cc3occ(C(C)(C)C)c3cc12 [Compound 28],97,85,

SMILES,RA at 100 µM against Mtb (Mtb proteasome) [%],RA at 10 µM against ß5i of IP (ß5i of IP) [%],also measured
Cc1coc2cc3oc(=O)c(CC(=O)O)c(C)c3cc12 [Compound 29],61,88,
Cc1cc(-c2coc3cc4oc(=O)c(CC(=O)O)c(C)c4cc23)c(C)s1 [Compound 30],93,,Ki (ß5i of IP): 36.5 ± 7.1 µM
Cc1c(CC(=O)O)c(=O)oc2cc3occ(-c4ccco4)c3cc12 [Compound 31],79,,Ki (ß5i of IP): 89.3 ± 2 µM
Cc1cc(-c2coc3cc4oc(=O)c(CC(=O)O)c(C)c4cc23)c(C)o1 [Compound 32],100,,Ki (ß5i of IP): 351 ± 48 µM
Cc1c(CC(=O)O)c(=O)oc2cc3occ(C4CCCCC4)c3cc12 [Compound 33],90,,Ki (ß5i of IP): 198 ± 21 µM
O=C(O)Cc1cc2cc3c(-c4ccccc4)coc3cc2oc1=O [Compound 34],54,,Ki (ß5i of IP): 3.8 ± 1.1 µM
Cc1c(CCC(=O)O)c(=O)oc2c(C)c3occ(-c4ccccc4)c3cc12 [Compound 35],100,,Ki (ß5i of IP): 43.1 ± 15 µM
COc1cccc(-c2coc3c(C)c4oc(=O)c(CCC(=O)O)c(C)c4cc23)c1 [Compound 36],87,72,
COc1ccc(-c2coc3c(C)c4oc(=O)c(CCC(=O)O)c(C)c4cc23)cc1 [Compound 37],87,87,
Cc1c(CCC(=O)O)c(=O)oc2c(C)c3occ(-c4ccc(Cl)cc4)c3cc12 [Compound 38],47,89,
Cc1c(CCC(=O)O)c(=O)oc2c(C)c3occ(-c4ccc(C(=O)O)cc4)c3cc12 [Compound 39],98,,
Cc1c(CCC(=O)N(C)CC#N)c(=O)oc2cc3occ(-c4ccccc4)c3cc12 [Compound 40],100,92,
Cc1c(CCC(=O)N(C)CC#N)c(=O)oc2cc3occ(-c4ccc(Br)cc4)c3cc12 [Compound 41],91,107,
Cc1coc2cc3oc(=O)c(CCC(=O)N(C)CC#N)c(C)c3cc12 [Compound 42],99,93,
Cc1cc(-c2coc3cc4oc(=O)c(CCC(=O)N(C)CC#N)c(C)c4cc23)c(C)s1 [Compound 43],55,107,
Cc1c(CCC(=O)N(C)CC#N)c(=O)oc2cc3occ(-c4ccco4)c3cc12 [Compound 44],82,86,
Cc1c(CCC(=O)N(C)CC#N)c(=O)oc2cc3occ(C4CCCCC4)c3cc12 [Compound 45],92,111,
Cc1c(CCC(=O)NCC#N)c(=O)oc2cc3occ(-c4ccc(Br)cc4)c3cc12 [Compound 46],82,107,
Cc1coc2cc3oc(=O)c(CCC(=O)NCC#N)c(C)c3cc12 [Compound 47],95,105,
Cc1cc(-c2coc3cc4oc(=O)c(CCC(=O)NCC#N)c(C)c4cc23)c(C)s1 [Compound 48],100,109,
Cc1c(CCC(=O)NCC#N)c(=O)oc2cc3occ(-c4ccco4)c3cc12 [Compound 49],100,97,
Cc1c(CCC(=O)NCC#N)c(=O)oc2cc3occ(C4CCCCC4)c3cc12 [Compound 50],96,102,
Cc1c(CC(=O)N(C)CC#N)c(=O)oc2cc3occ(-c4ccccc4)c3cc12 [Compound 51],93,97,
Cc1coc2cc3oc(=O)c(CC(=O)NCC#N)c(C)c3cc12 [Compound 62],60,,
Cc1c(CN)c(=O)oc2cc3occ(-c4ccccc4)c3cc12 [Compound 80],55,,
